The record followed here is ChEMBL document CHEMBL1151687, “Search for alpha-helical propensity in the receptor-bound conformation of glucagon-like peptide-1” (Bioorg Med Chem, 2008).

In general, IC50 refers to the point on the concentration scale where inhibition reaches its midpoint. Read a low IC50 as inhibition by little substance. The EC50 is the midpoint of the concentration-response curve.

Each structure is given as a SMILES string. Positions of bridges follow the written chain, without caps; N, C: chain ends. Residues, ends and D or L forms follow the SMILES beside them.

The target in assay [1] is T1, Glucagon-like peptide 1 receptor (Homo sapiens, UniProt P43220). Briefly: Displacement of [125I]exendin(9-39) from human GLP1R expressed in HEK293 cells. Type of assay: cell-based. (In general: Displacement assays read how much labelled ligand stays bound in the presence of the test substance.)
Assay [2] deals with T1, Glucagon-like peptide 1 receptor. Briefly: Activation of human GLP1R expressed in HEK293 cells assessed as effect on cAMP responsive element promoter driven luciferase expression. It is filed as functional, cell-based.

T1 sequence (P43220 whole entry): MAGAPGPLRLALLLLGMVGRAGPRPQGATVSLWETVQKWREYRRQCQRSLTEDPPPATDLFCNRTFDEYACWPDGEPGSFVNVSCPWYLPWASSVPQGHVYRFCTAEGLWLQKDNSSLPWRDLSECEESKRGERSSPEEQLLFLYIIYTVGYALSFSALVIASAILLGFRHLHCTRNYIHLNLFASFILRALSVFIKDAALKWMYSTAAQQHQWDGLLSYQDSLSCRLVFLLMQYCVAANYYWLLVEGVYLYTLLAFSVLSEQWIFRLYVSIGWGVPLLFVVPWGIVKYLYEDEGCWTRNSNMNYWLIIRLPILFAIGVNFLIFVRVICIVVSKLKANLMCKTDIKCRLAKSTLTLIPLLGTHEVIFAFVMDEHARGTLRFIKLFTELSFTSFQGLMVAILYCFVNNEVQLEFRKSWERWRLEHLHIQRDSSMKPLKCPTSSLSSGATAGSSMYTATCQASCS

On to `CC[C@H](C)[C@H](NC(=O)[C@H](Cc1ccccc1)NC(=O)[C@H](CCC(=O)O)NC(=O)[C@H](CCCCN)NC(=O)[C@H](C)NC(=O)[C@H](C)NC(=O)[C@H](CCC(N)=O)NC(=O)CNC(=O)[C@H](CCC(=O)O)NC(=O)[C@@H]1CCC(=O)NCCCC[C@H](NC(=O)[C@H](CC(=O)O)NC(=O)[C@H](CO)NC(=O)[C@@H](NC(=O)[C@H](Cc2ccccc2)NC(=O)[C@@H](NC(=O)CNC(=O)[C@H](CCC(=O)O)NC(=O)[C@H](C)NC(=O)[C@@H](N)Cc2cnc[nH]2)[C@@H](C)O)[C@@H](C)O)C(=O)N[C@@H](CO)C(=O)N[C@@H](CO)C(=O)N[C@@H](Cc2ccc(O)cc2)C(=O)N1)C(=O)N[C@@H](C)C(=O)N[C@@H](Cc1c[nH]c2ccccc12)C(=O)N[C@@H](CC(C)C)C(=O)N[C@H](C(=O)N[C@@H](CCCCN)C(=O)NCC(=O)N[C@@H](CCCNC(=N)N)C(N)=O)C(C)C` (H-HAEGTFTSDKSSYEEGQAAKEFIAWLVKGR-NH2; lactam 10-14), for which the IC50 in assay [1] is 4.5 nM. Moreover, the 50% effective concentration (EC50) in assay [2] amounted to 0.0075 nM.
In assay [1] (hek293), `CC[C@H](C)[C@H](NC(=O)[C@H](Cc1ccccc1)NC(=O)[C@H](CCC(=O)O)NC(=O)[C@H](CCCCN)NC(=O)[C@@H]1CCC(=O)NCCCC[C@H](NC(=O)[C@H](CC(C)C)NC(=O)[C@H](Cc2ccc(O)cc2)NC(=O)[C@H](CO)NC(=O)[C@H](CO)NC(=O)[C@@H](NC(=O)[C@H](CC(=O)O)NC(=O)[C@H](CO)NC(=O)[C@@H](NC(=O)[C@H](Cc2ccccc2)NC(=O)[C@@H](NC(=O)CNC(=O)[C@H](CCC(=O)O)NC(=O)[C@H](C)NC(=O)[C@@H](N)Cc2cnc[nH]2)[C@@H](C)O)[C@@H](C)O)C(C)C)C(=O)NCC(=O)N[C@@H](CCC(N)=O)C(=O)N[C@@H](C)C(=O)N1)C(=O)N[C@@H](C)C(=O)N[C@@H](Cc1c[nH]c2ccccc12)C(=O)N[C@@H](CC(C)C)C(=O)N[C@H](C(=O)N[C@@H](CCCCN)C(=O)NCC(=O)N[C@@H](CCCNC(=N)N)C(N)=O)C(C)C` (H-HAEGTFTSDVSSYLKGQAEKEFIAWLVKGR-NH2; lactam 15-19) showed a concentration for half-maximal inhibition (IC50) of 9200 nM. The EC50 in assay [2] (hek293) came out at 1.1 nM.
`CC[C@H](C)[C@H](NC(=O)[C@H](Cc1ccccc1)NC(=O)[C@H](CCC(=O)O)NC(=O)[C@H](CCCCN)NC(=O)[C@H](C)NC(=O)[C@H](C)NC(=O)[C@H](CCC(N)=O)NC(=O)CNC(=O)[C@H](CCC(=O)O)NC(=O)[C@H](CC(C)C)NC(=O)[C@H](Cc1ccc(O)cc1)NC(=O)[C@@H]1CCC(=O)NCCCC[C@H](NC(=O)[C@@H](NC(=O)[C@H](Cc2ccccc2)NC(=O)[C@@H](NC(=O)CNC(=O)[C@H](CCC(=O)O)NC(=O)[C@H](C)NC(=O)[C@@H](N)Cc2cnc[nH]2)[C@@H](C)O)[C@@H](C)O)C(=O)N[C@@H](CC(=O)O)C(=O)N[C@@H](C(C)C)C(=O)N[C@@H](CO)C(=O)N1)C(=O)N[C@@H](C)C(=O)N[C@@H](Cc1c[nH]c2ccccc12)C(=O)N[C@@H](CC(C)C)C(=O)N[C@H](C(=O)N[C@@H](CCCCN)C(=O)NCC(=O)N[C@@H](CCCNC(=N)N)C(N)=O)C(C)C` (H-HAEGTFTKDVSEYLEGQAAKEFIAWLVKGR-NH2; lactam 8-12) had an IC50 in assay [1] (hek293) of 210 nM. Moreover, the EC50 in assay [2] (hek293) amounted to 8.4 nM.
For `CC[C@H](C)[C@H](NC(=O)[C@H](Cc1ccccc1)NC(=O)[C@H](CCC(=O)O)NC(=O)[C@H](CCCCN)NC(=O)[C@H](C)NC(=O)[C@H](C)NC(=O)[C@H](CCC(N)=O)NC(=O)CNC(=O)[C@H](CCC(=O)O)NC(=O)[C@H](CC(C)C)NC(=O)[C@H](Cc1ccc(O)cc1)NC(=O)[C@H](CO)NC(=O)[C@H](CO)NC(=O)[C@@H](NC(=O)[C@@H]1CCC(=O)NCCCC[C@H](NC(=O)CNC(=O)[C@H](CCC(=O)O)NC(=O)[C@H](C)NC(=O)[C@@H](N)Cc2cnc[nH]2)C(=O)N[C@@H](Cc2ccccc2)C(=O)N[C@@H]([C@@H](C)O)C(=O)N[C@@H](CO)C(=O)N1)C(C)C)C(=O)N[C@@H](C)C(=O)N[C@@H](Cc1c[nH]c2ccccc12)C(=O)N[C@@H](CC(C)C)C(=O)N[C@H](C(=O)N[C@@H](CCCCN)C(=O)NCC(=O)N[C@@H](CCCNC(=N)N)C(N)=O)C(C)C` (H-HAEGKFTSEVSSYLEGQAAKEFIAWLVKGR-NH2; lactam 5-9), in that order: 110 nM and 0.38 nM.
The compound `CC[C@H](C)[C@H](NC(=O)[C@H](Cc1ccccc1)NC(=O)[C@H](CCC(=O)O)NC(=O)[C@H](CCCCN)NC(=O)[C@H](C)NC(=O)[C@@H]1CCC(=O)NCCCC[C@H](NC(=O)[C@H](Cc2ccc(O)cc2)NC(=O)[C@H](CO)NC(=O)[C@H](CO)NC(=O)[C@@H](NC(=O)[C@H](CC(=O)O)NC(=O)[C@H](CO)NC(=O)[C@@H](NC(=O)[C@H](Cc2ccccc2)NC(=O)[C@@H](NC(=O)CNC(=O)[C@H](CCC(=O)O)NC(=O)[C@H](C)NC(=O)[C@@H](N)Cc2cnc[nH]2)[C@@H](C)O)[C@@H](C)O)C(C)C)C(=O)N[C@@H](CCC(=O)O)C(=O)NCC(=O)N[C@@H](CCC(N)=O)C(=O)N1)C(=O)N[C@@H](C)C(=O)N[C@@H](Cc1c[nH]c2ccccc12)C(=O)N[C@@H](CC(C)C)C(=O)N[C@H](C(=O)N[C@@H](CCCCN)C(=O)NCC(=O)N[C@@H](CCCNC(=N)N)C(N)=O)C(C)C` (H-HAEGTFTSDVSSYKEGQEAKEFIAWLVKGR-NH2; lactam 14-18) gave an IC50 in assay [1] (hek293) of 3000 nM. Besides, the EC50 in assay [2] (hek293) stood at 0.36 nM.
`CC[C@H](C)[C@H](NC(=O)[C@H](CCC(=O)O)NC(=O)[C@H](CCCCN)NC(=O)[C@H](C)NC(=O)[C@H](C)NC(=O)[C@H](CCC(N)=O)NC(=O)[C@H](CCC(N)=O)NC(=O)[C@H](CCC(=O)O)NC(=O)[C@H](CC(C)C)NC(=O)[C@H](Cc1ccc(O)cc1)NC(=O)[C@H](CCCCNC(C)=O)NC(=O)[C@H](CO)NC(=O)[C@@H](NC(=O)[C@H](CC(=O)O)NC(=O)[C@H](CO)NC(=O)[C@@H](NC(=O)[C@H](Cc1ccccc1)NC(=O)[C@@H](NC(=O)CNC(=O)[C@H](CCC(=O)O)NC(=O)[C@H](C)NC(=O)[C@@H](N)Cc1cnc[nH]1)[C@@H](C)O)[C@@H](C)O)C(C)C)C(=O)N[C@@H](Cc1ccccc1)C(=O)N[C@@H](C)C(=O)N[C@@H](Cc1c[nH]c2ccccc12)C(=O)N[C@@H](CC(C)C)C(=O)N[C@H](C(=O)N[C@@H](CCCCN)C(=O)NCC(=O)N[C@@H](CCCNC(=N)N)C(N)=O)C(C)C` (H-HAEGTFTSDVSK(Ac)YLEQQAAKEIFAWLVKGR-NH2) yielded an IC50 in assay [1] of 17 nM. In addition, the 50% effective concentration (EC50) in assay [2] turned out to be 0.0038 nM.
For `CC[C@H](C)[C@H](NC(=O)[C@H](CCC(=O)O)NC(=O)[C@H](CCCCN)NC(=O)[C@H](C)NC(=O)[C@H](C)NC(=O)[C@H](CCC(N)=O)NC(=O)CNC(=O)[C@H](CCC(=O)O)NC(=O)[C@H](CCC(N)=O)NC(=O)[C@H](Cc1ccc(O)cc1)NC(=O)[C@H](CO)NC(=O)[C@H](CO)NC(=O)[C@H](CCCCNC(C)=O)NC(=O)[C@H](CC(=O)O)NC(=O)[C@H](CO)NC(=O)[C@@H](NC(=O)[C@H](Cc1ccccc1)NC(=O)[C@@H](NC(=O)CNC(=O)[C@H](CCC(=O)O)NC(=O)[C@H](C)NC(=O)[C@@H](N)Cc1cnc[nH]1)[C@@H](C)O)[C@@H](C)O)C(=O)N[C@@H](Cc1ccccc1)C(=O)N[C@@H](C)C(=O)N[C@@H](Cc1c[nH]c2ccccc12)C(=O)N[C@@H](CC(C)C)C(=O)N[C@H](C(=O)N[C@@H](CCCCN)C(=O)NCC(=O)N[C@@H](CCCN=C(N)N)C(N)=O)C(C)C`, in that order: 6.6 nM and 0.012 nM.
